Experimental data: patent US9370189B2, “Controlling Pseudomonas aeruginosa persister cells with GM-CSF” (priority 2012, dated 2016)
“And” between values parts separate entries of the source, which are not always exact repeats. Equal entries are not always repeated.

Assays:
P. aeruginosa PAO1 = assay: Effect of GM-CSF on planktonic PAO1 cells (total viable cells and persisters) at exponential phase, alone and with antibiotic, CFU by drop plate; type: cell-based, Pseudomonas aeruginosa; settings: for % change in avg. CFU/ml after adding factor + CIP / % change in avg. CFU/ml after adding factor + GEN / % change in avg. CFU/ml after adding factor + TET / % change in avg. CFU/ml after adding factor + TOB / average CFU/mL of persisters reduced by / average CFU/mL of total viable cells reduced by: planktonic PAO1; for % change in avg. CFU/ml after adding factor + CIP: 2.43 pg/mL GM-CSF with 200 μg/mL ciprofloxacin; for % change in avg. CFU/ml after adding factor + GEN: 2.43 pg/mL GM-CSF with 200 μg/mL gentamicin; for % change in avg. CFU/ml after adding factor + TET: 2.43 pg/mL GM-CSF with 200 μg/mL tetracycline; for % change in avg. CFU/ml after adding factor + TOB: 2.43 pg/mL GM-CSF with 200 μg/mL tobramycin; for average CFU/mL of persisters reduced by / average CFU/mL of total viable cells reduced by: reduction
Description: This Example describes the treatment of planktonic P. aeruginosa PAO1, PDO300 and Escherichia coli K12, with GM-CSF introduced directly or together with an antibiotic to test the synergy. All experiments were conducted with cells harvested from exponential phase subcultures with an optical density at 600 nm (OD600) of 0.3 to 0.4.
In brief, after preparing an overnight culture of the tested strain in 25 ml LB medium, a subculture was prepared with an OD600 of 0.01 in 50 mL LB medium. The subculture was incubated at 37° C. with shaking at 200 rpm for 3-4 h, till an OD600 of 0.3 to 0.4 was reached. The exponential phase subculture was then divided equally into two centrifuge tubes, each containing 25 mL of the subculture. The subcultures were washed twice with 0.85% NaCl buffer by vortexing and then centrifuging at 4° C., 8000 rpm for 10 min each time. The washed subcultures/cells were resuspended in 25 mL 0.85% NaCl buffer and vortexed gently for 1 min. One of the tubes of subculture was selected for isolation of persisters by adding 200 μg/mL ciprofloxacin (for PAO1 and PDO300 strains) or 100 μg/mL ampicillin (for E. coli K12 strain). After adding the antibiotic for persister isolation, the subculture was incubated at 37° C., shaking at 200 rpm for 3.5 h.
To test the effects of GM-CSF on viability of persisters, the second tube was used to quantify the total number of viable cells and 1 mL of the washed persister cells was divided into 6 microcentrifuge tubes; 3 were control and the other 3 were GM-CSF treatment samples. In the treatment samples, GM-CSF was added to a concentration of 2.43 pg/mL (or 0.17 pM), the same as found in healthy human bodies. The control samples were supplemented with the same concentration of PBS and BSA as present in 2.43 pg/mL (or 0.17 pM) GM-CSF samples.
After incubating at 37° C. for 1 h with shaking at 200 rpm, the samples were plated on LB agar plates (15 g/L bacto agar) using drop plate method. The agar plates were then incubated for 24 h at 37° C. to count the total number of persister cells and understand the effect of 0.17 pM GM-CSF on the viability of persister cells.
To test the synergy with antibiotics, the above samples were then incubated at 37° C. for 3.5 h with shaking at 200 rpm after adding the selected antibiotic. After 3.5 h, the CFU of samples was quantified in the same way to understand if there is any synergy between GM-CSF and antibiotic. Similar treatments were performed on the total population in exponential phase as well. Apart from exponential phase, the synergistic effects of GM-CSF with antibiotics on total viable cells and persisters were also evaluated at stationary phase but PBS buffer (pH=7.4) was used in the experiments instead of 0.85% NaCl solution. Moreover, the 1 h and 3.5 h treatments were performed as co-treatments.

[1] = test system: P. aeruginosa PDO300 biofilm; assay: Effect of GM-CSF on 24-h PDO300 biofilm, alone and with antibiotic; type: cell-based, Pseudomonas aeruginosa; settings: for average CFU/ml of biofilm cells reduced by: reduction, PDO300 biofilm
Description: (§1) This Example describes the treatment of biofilms made from P. aeruginosa PAO1, PDO300 and Escherichia coli K12, with GM-CSF introduced directly or together with an antibiotic to test the synergy.
(§2) In brief, after preparing an overnight culture, it was subcultured to an initial OD600 of 0.01 to a total volume of 20 mL M63 medium (for PAO1 and PDO300) or 20 ml LB medium (for E. coli K12) in a petri dish with 316L stainless steel coupons (1.75 cm×1 cm). The biofilm was grown for 24 h at 37° C. without shaking. After incubation, the coupons were washed by gently dipping in 0.85% NaCl twice using tweezers and were placed in new empty petri dishes.
(§3) To test the synergistic effects between GM-CSF (2.43 pg/mL or 0.17 pM) and antibiotics, a total of 8 coupons were analyzed. These 8 coupons were placed in 4 petri dishes (2 coupons in each dish). The two dishes were labeled as control and the other two as treatment samples. In the treatment samples, GM-CSF was added to 20 mL of 0.85% NaCl to a concentration of 2.43 pg/mL (or 0.17 pM). The control samples were supplemented with the same amount of PBS and BSA as present in the samples with 2.43 pg/ml (or 0.17 pM) GM-CSF. The coupons were incubated at 37° C. for 2 h.
(§4) After incubation, a control dish and a treatment dish was selected for studying the killing effect of 2.43 pg/ml GM-CSF on biofilm cells. Each coupon after gentle washing with 0.85% NaCl buffer, was placed in a test tube with 3 mL 0.85% NaCl buffer in each. They were sonicated (B200, Sinosonic Industrial Co., Ltd., Taiwan) for 4 mins to release the biofilm cells in the buffer. After vortexing for 1 min, they were plated on LB agar plates using drop plate method. The CFU was counted after incubation at 37° C. for 24 h to count the total number of viable cells. Furthermore, the synergistic effect of antibiotics with GM-CSF was evaluated with additional 3.5 h treatment with antibiotic at 37° C. After incubation, drop plate method was performed and the CFU was counted to understand if there is a synergistic effect.

E. coli K12 biofilm = assay: Effect of GM-CSF on 24-h E. coli K12 biofilm, alone and with antibiotic; type: cell-based, Escherichia coli
Description: as §1, §2, §3, §4

[2] = 2.43 pg/ml GM-CSF with 200 μg/mL ciprofloxacin
[3] = 2.43 pg/ml GM-CSF with 200 μg/mL gentamicin
[4] = 2.43 pg/ml GM-CSF with 200 μg/mL tetracycline
[5] = 2.43 pg/ml GM-CSF with 200 μg/mL tobramycin

GM-CSF: granulocyte macrophage-colony stimulating factor, a cytokine secreted by macrophages; recombinant human GM-CSF (R&D systems) in binding tests
persister cells rendered sensitive to the antibiotic ciprofloxacin (P. aeruginosa PAO1; P. aeruginosa persister cells, GM-CSF at 2.43 pg/mL): more than 97%
% change in avg. CFU/ml after adding factor + CIP (P. aeruginosa PAO1; persisters): −97.95%
% change in avg. CFU/ml after adding factor + GEN (P. aeruginosa PAO1; persisters): −59.31%
% change in avg. CFU/ml after adding factor + TET (P. aeruginosa PAO1; persisters): −65.66%
% change in avg. CFU/ml after adding factor + TOB (P. aeruginosa PAO1; persisters): −81.42%
average CFU/mL of persisters reduced by (P. aeruginosa PAO1; [2]): 97.95%
average CFU/mL of total viable cells reduced by (P. aeruginosa PAO1; [2]): 15.38%
average CFU/mL of persisters reduced by (P. aeruginosa PAO1; [3]): 59.31%
average CFU/mL of total viable cells reduced by (P. aeruginosa PAO1; [3]): 10.53%
average CFU/mL of persisters reduced by (P. aeruginosa PAO1; [4]): 65.66%
average CFU/mL of total viable cells reduced by (P. aeruginosa PAO1; [4]): 23.06%
average CFU/mL of persisters reduced by (P. aeruginosa PAO1; [5]): 81.42%
average CFU/mL of total viable cells reduced by (P. aeruginosa PAO1; [5]): 34.62%
% change in avg. CFU/ml after adding factor (P. aeruginosa PAO1; total viable cells, planktonic PAO1, exponential phase, 2.43 pg/mL GM-CSF alone, 1 h): −2.22% and −5.00% and −2.94% and −1.69%
% change in avg. CFU/ml after adding factor + CIP (P. aeruginosa PAO1; total viable cells): −15.38%
% change in avg. CFU/ml after adding factor + GEN (P. aeruginosa PAO1; total viable cells): −10.53%
% change in avg. CFU/ml after adding factor + TET (P. aeruginosa PAO1; total viable cells): −23.08%
% change in avg. CFU/ml after adding factor + TOB (P. aeruginosa PAO1; total viable cells): −34.62%
% change in avg. CFU/ml after adding factor + CIP ([1]; 24-h PDO300 biofilm, 2.43 pg/mL GM-CSF with 200 μg/mL ciprofloxacin): −14.0%
% change in avg. CFU/ml after adding factor + TOB ([1]; 24-h PDO300 biofilm, 2.43 pg/mL GM-CSF with 200 μg/mL tobramycin): −13.0%
% change in avg. CFU/ml after adding factor + GEN ([1]; 24-h PDO300 biofilm, 2.43 pg/ml GM-CSF with 200 μg/mL gentamicin): −10.8%
% change in avg. CFU/ml after adding factor + TET ([1]; 24-h PDO300 biofilm, 2.43 pg/ml GM-CSF with 200 μg/mL tetracycline): −7.3%
average CFU/ml of biofilm cells reduced by ([1]; 2.43 pg/mL GM-CSF alone, average of 2 experiments): 5.64%
average CFU/ml of biofilm cells reduced by ([1]; 2.43 pg/mL GM-CSF in the presence of 200 μg/mL ciprofloxacin): 8.8%
average CFU/ml of biofilm cells reduced by ([1]; 2.43 pg/mL GM-CSF in the presence of 200 μg/mL gentamicin): 5.6%
average CFU/ml of biofilm cells reduced by ([1]; 2.43 pg/mL GM-CSF in the presence of 200 μg/mL tetracycline): 1.8%
average CFU/ml of biofilm cells reduced by ([1]; 2.43 pg/mL GM-CSF in the presence of 200 μg/mL tobramycin): 7.7%
% change in avg. CFU/ml after adding factor + CIP (E. coli K12 biofilm; 24-h E. coli K12 biofilm, 2.43 pg/mL GM-CSF with 100 μg/mL ciprofloxacin): +4.8%
% change in avg. CFU/ml after adding factor + TET (E. coli K12 biofilm; 24-h E. coli K12 biofilm, 2.43 pg/mL GM-CSF with 100 μg/mL tetracycline): +3.6%
% change in avg. CFU/ml after adding factor + TOB (E. coli K12 biofilm; 24-h E. coli K12 biofilm, 2.43 pg/mL GM-CSF with 100 μg/mL tobramycin): +4.2%
% change in avg. CFU/ml after adding factor + GEN (E. coli K12 biofilm; 24-h E. coli K12 biofilm, 2.43 pg/mL GM-CSF with 125 μg/mL gentamicin): +8.1%
average CFU/mL of biofilm cells changed by (E. coli K12 biofilm; E. coli K12 biofilm, 2.43 pg/mL GM-CSF alone, average of 2 experiments): +4.83%
average CFU/ml of biofilm cells changed by (E. coli K12 biofilm; E. coli K12 biofilm, 2.43 pg/mL GM-CSF in the presence of 100 μg/mL ciprofloxacin): +1.2%
average CFU/ml of biofilm cells changed by (E. coli K12 biofilm; E. coli K12 biofilm, 2.43 pg/mL GM-CSF in the presence of 100 μg/mL tetracycline): −2.4%
average CFU/ml of biofilm cells changed by (E. coli K12 biofilm; E. coli K12 biofilm, 2.43 pg/mL GM-CSF in the presence of 100 μg/mL tobramycin): +0.6%
average CFU/ml of biofilm cells changed by (E. coli K12 biofilm; E. coli K12 biofilm, 2.43 pg/mL GM-CSF in the presence of 125 μg/mL gentamicin): +1.9%
